Where a name gives a salt, the structure may show the parent alone. Read-outs that look alike come from different tables or passages of the source.

Experiment [1] concerns Pasteurella multocida strains. Description: MIC by broth microdilution (CLSI). The experiment is classed as cell-based. To be noted: drug alone, against three strains (D18, T5, and WJ11). As to the method:
The susceptibility of the selected P. multocida isolates and the quality control isolate (ATCC 25922) to colistin, gamithromycin, cefquinome, enrofloxacin, tilmicosin, tylosin tartrate, and florfenicol alone was determined using the microdilution method in broth (conducted in triplicate) according to the guiding principles of the CLSI. Based on the action mechanism of each drug, the antimicrobial activity of colistin or cefquinome (drug A) in combination with gamithromycin, enrofloxacin, tilmicosin, tylosin tartrate, or florfenicol (drug B) was determined with the checkerboard method, according to the minimal inhibitory concentration (MIC) of each drug. Briefly, 50 μL of MH II broth was added to each well, and 50 μL of the indicated concentration of colistin or cefquinome was added into the first well of each line. This was followed by multiproportion dilution. Next, 50-μL samples of different concentrations of gamithromycin or the other drugs mentioned above were added to the dilution medium, and a 100 μL inoculum with a cell density of ∼1 × 10^6 colony-forming units (CFU)/mL was added to each well. The plates were then incubated at 37°C for 24 h. According to the EUCAST definitive document E.Def 1.2 ([Mccullough, 2010]), the fractional inhibitory concentration (FIC) index for combined administrations was defined as the sum of the FIC of drug A and the FIC of drug B, where FIC is the MIC of the drug combined with other drugs, divided by the MIC of the drug alone.

A further experiment has as its system P. multocida. The arrangement: method as in Benoit et al., 2011. The following applies: P. multocida with erm(E); ref Benoit et al., 2011; cited from earlier work. An excerpt:
Bovine respiratory disease (BRD) associated with Mannheimia haemolytica, P. multocida, and Histophilus somni is one of the most economically important diseases that occur in feedlots, and the global losses are estimated at over $3 billion per year ([Watts and Sweeney, 2010]).

The mark [2] stands for this setting: Pasteurella multocida, read-out: MIC.

Regarding `CC[C@H]1OC(=O)C[C@@H](O)[C@H](C)[C@@H](O[C@@H]2O[C@H](C)[C@@H](O[C@H]3C[C@@](C)(O)[C@@H](O)[C@H](C)O3)[C@H](N(C)C)[C@H]2O)[C@@H](CC=O)C[C@@H](C)C(=O)/C=C/C(C)=C/[C@@H]1CO[C@@H]1O[C@H](C)[C@@H](O)[C@@H](OC)[C@H]1OC` [tylosin, tylosin tartrate], the MIC in experiment [1] (setting [2]) is above 64 µg/mL; in the experiment on P. multocida, at least 512 µg/mL.
On to `CCN1CCN(c2cc3c(cc2F)c(=O)c(C(=O)O)cn3C2CC2)CC1` [enrofloxacin, Enrofloxacin], for which, in experiment [1] (setting [2]), the MIC was above 64 µg/mL.
As for `CS(=O)(=O)c1ccc([C@@H](O)[C@@H](CF)NC(=O)C(Cl)Cl)cc1` [florfenicol], the minimal inhibitory concentration (MIC) in experiment [1] (setting [2]) lay in the range of 2 to 4 µg/mL.
Take `CO/N=C(\C(=O)N[C@@H]1C(=O)N2C(C(=O)[O-])=C(C[n+]3cccc4c3CCCC4)CS[C@H]12)c1csc(N)n1` [cefquinome, Cefquinome]: the MIC entry in experiment [1] is given as “more than 64 mg/L”.
With `CCCNC[C@]1(O)[C@H](C)O[C@@H](O[C@H]2[C@H](C)[C@@H](O[C@@H]3O[C@H](C)C[C@H](N(C)C)[C@H]3O)[C@](C)(O)C[C@@H](C)CN[C@H](C)[C@@H](O)[C@](C)(O)[C@@H](CC)OC(=O)[C@@H]2C)C[C@@]1(C)OC` [tulathromycin], the minimum inhibitory concentration (MIC) with P. multocida was at least 512 µg/mL.
`CC[C@H]1OC(=O)C[C@@H](O)[C@H](C)[C@@H](O[C@@H]2O[C@H](C)[C@@H](O)[C@H](N(C)C)[C@H]2O)[C@@H](CCN2C[C@H](C)C[C@H](C)C2)C[C@@H](C)C(=O)/C=C/C(C)=C/[C@@H]1CO[C@@H]1O[C@H](C)[C@@H](O)[C@@H](OC)[C@H]1OC` [tilmicosin]: the MIC is 2 to 4 µg/mL in experiment [1] (setting [2]) and at least 512 µg/mL in the experiment on P. multocida.

Values taken from PMC7536268, “Increased Antimicrobial Activity of Colistin in Combination With Gamithromycin Against Pasteurella multocida in a Neutropenic Murine Lung Infection Model” (Frontiers in Microbiology, 2020).
